Laboratory results as given in US20220144850A1, “INDOLO HEPTAMYL OXIME ANALOGUE AS PARP INHIBITOR” (Chia Tai Tianqing Pharmaceutical Group Co., Ltd., priority 2019, published 2022).

System: human breast cancer MDA-MB-436 cells
Assay: In vivo pharmacodynamic study, subcutaneous xenograft tumor model of MDA-MB-436 cells
Design: species or system BALB/c nude mouse
Details: for TGI: day 27; for Tumor volume (day 27): mean ± SEM
Text: Experimental Example 9: In Vivo Pharmacodynamic Study of Compounds in Subcutaneous Xenograft Tumor BALB/c Nude Mouse Model of Human Breast Cancer MDA-MB-436 Cells
Experimental objective: to study the efficacy in vivo of the test compound in subcutaneous xenograft tumor BALB/c nude mouse model of human breast cancer MDA-MB-436 cells.
Experimental materials: week age and body weight: female BALB/c nude mice, 6-8 weeks old, 18-22 g of body weight. The experiment started after 3-7-days of adaptive feeding. The animal information card of each cage provides the following information about the animals: number, sex, strain, receiving date, administration regime, experiment number, group and starting date of the experiment. All the cages, padding and drinking water were sterilized before use. The cages, feed and drinking water were changed twice a week. The experimental animals were identified with ear tags. Test samples: Example 24_A and Example 25_A. All the test samples were prepared with 10% DMSO+90% (20% HP-β-CD) as vehicle, and the blank control group was administered with the vehicle alone.
1. Cell culturing. Human breast cancer MDA-MB-436 cells (ATCC, Manassas, Va., catalog No.: HTB-130) were cultured in an RPMI-1640 culture medium containing 10% fetal bovine serum and 1% Anti-anti through in vitro monolayer culture in an incubator at 37° C./5% CO2. The cells were digested with trypsin-EDTA twice a week for passaging as per conventional practice. At a cell saturation of 80%-90% and a required number, the cells were collected, counted and inoculated. 2. Tumor cell inoculation (tumor inoculation). 0.2 mL (1×10^7 cells) of MDA-MB-436 cells (along with matrigel in a volume ratio of 1:1) was subcutaneously inoculated on the right back of each mouse, and the mice were randomly grouped when the average tumor volume was 318 mm^3. 3. Daily observation of experimental animals: animals were monitored daily for health and death, and routine examinations include observation of the effect of tumor growth and drug treatment on the daily performance of the animals, such as behavioral activities, food and water intake, weight changes, appearance, or other abnormal conditions. 4. Tumor measurements and experimental indices: the experimental indices were to investigate whether the tumor growth was inhibited, the tumor growth was delayed or the tumor was cured. Tumor diameters were measured twice weekly using a vernier caliper. The tumor volume was calculated using the following formula: V=0.5a×b^2, where a and b represent the long diameter and short diameter of the tumor, respectively. The anti-tumor therapeutic effect of the compound was evaluated by TGI (%) or relative tumor proliferation rate T/C (%). TGI (%) refers to the rate of tumor growth inhibition. Calculation of TGI (%): TGI (%)=[(1−(average tumor volume at the end of administration in a treatment group−average tumor volume at the start of administration of the treatment group))/(average tumor volume at the end of treatment of the solvent control group−average tumor volume at the start of treatment of the solvent control group)]×100%. The calculation formula for relative tumor proliferation rate T/C (%) was as follows: T/C (%)=TRTV/CRTV×100% (TRTV: RTV of treatment group; CRTV: RTV of negative control group). Relative tumor volume (RTV) was calculated based on the results of tumor measurement. The calculation formula was: RTV=Vt/V0, wherein V0 was the average tumor volume measured at the time of grouping and administration (i.e., d0), Vt was the average tumor volume at a certain measurement, and the data of TRTV and CRTV used were obtained on the same day. 5. Statistical analysis: including mean and standard error of mean (SEM) of tumor volume at each time point for each group. […] The experimental data were analyzed using a one-way ANOVA method and a Games-Howell method. All data analysis was performed with SPSS 17.0. p<0.05 was defined as a significant difference.

CC1(c2ccc(-c3[nH]c4cc(F)cc5c4c3CONC5=O)cc2)CCCN1 (stereo not drawn) [Example 25_A]
TGI (12.5 mg/kg PO QD × 28 days): 95.34% | Tumor volume (day 27) (12.5 mg/kg PO QD × 28 days): 377 ± 149 mm^3 | TGI (25 mg/kg PO QD × 28 days): 114.69% | Tumor volume (day 27) (25 mg/kg PO QD × 28 days): 132 ± 32 mm^3 | TGI (50 mg/kg PO QD × 28 days): 117.86% | Tumor volume (day 27) (50 mg/kg PO QD × 28 days): 91 ± 14 mm^3
